Data taken from patent publication US10611789B2, “Crystalline form A of rebaudioside D, and preparation method and application therefor” (ZHUCHENG HAOTIAN PHARM CO., LTD, priority 2015, dated 2020).
Values after ≈ are worked out from the molar mass of the structure shown.

How the values were obtained:
Assay type in all cases: physicochemical
[1] = dynamic vapor sorption (DVS) analysis; details: 25° C.
Experimental: DVS analysis: a DVS Intrinsic Dynamic Moisture Adsorption Device of UK SMS Instrument Company was used for detection. The measuring temperature: 25° C.; the relative humidity: 0-95%.

[2] = XRPD crystal form stability on storage
Experimental: XRPD analysis: a Bruker D8 advance diffractometer from German Brook Instruments Co. LTD was used for detection at room temperature, using Cu-Kα ray (λ=1.5418 Å) with 2θ angle scanning from 3° to 40° at a scanning speed of 0.2°/second.
The crystal form A of Rebaudioside D prepared in the above examples was subjected to XRPD analysis under the conditions of 25° C. and RH≤30%. The analysis results are shown in FIG. 6, and it can be seen from FIG. 6 that the crystal form thereof is unchanged and has a good stability.
The crystal form A of Rebaudioside D prepared in the above examples was stored for 6 months under the conditions of 25° C. and RH≤60%. The analysis results are shown in FIG. 7, and it can be seen from FIG. 7 that the crystal form thereof is unchanged and has a good stability.

[3] = HPLC chemical stability on storage; details: after six months of storage (25° C., relative humidity 60%)
Experimental: HPLC analysis: a 1260 infinity liquid chromatograph from American Agilent Technologies was used for determination. Preparation method for the sample solution: 25-50 mg of the Rebaudioside D sample was accurately weighed, and placed in a 25 ml of volumetric flask, and then a solution of water-acetonitrile (7:3, v/v) was added for dissolution and the volume was set to the scale. The fomulation method for sodium phosphate buffer (specification: 10 mmol/L, pH: 2.6): 2.76 g of sodium dihydrogen phosphate was dissolved in 2 L of water, phosphoric acid was added and the pH was adjusted to 2.6. Chromatographic column: Phenomenex's Luna 5μ C18 (2) 100 A column. Injection volume: 5 μl. Flow rate: 1.0 mL/min. Column temperature: 40° C. Detector: 210 nm of UV detection. Mobile phase: acetonitrile and sodium phosphate buffer (specification: 10 mmol/L, pH: 2.6) at a ratio of 32:68.

[4] = water solubility of crystal form A

mass percentage of absorbed moisture ([1]; within a relative humidity of 0-40%): 0-3.4%
mass percentage of absorbed moisture ([1]; within a relative humidity of 40-100%): 3.4-7.1%
crystal form by XRPD ([2]; 25° C. and RH≤30%): unchanged
crystal form by XRPD after storage ([2]; stored for 6 months, 25° C. and RH≤60%): unchanged
variation of HPLC purity compared with the raw material [3]: less than 0.5%
solubility [4]: ~600 µg/mL (≈ 531 µM)
Compound: C=C1C[C@@]23CCC4[C@@](C)(CCC[C@@]4(C)C(=O)O[C@@H]4OC(CO)[C@@H](O)C(O)C4OC4OC(CO)[C@@H](O)C(O)C4O)C2CC[C@]1(OC1OC(CO)C(O)C(OC2OC(CO)C(O)C(O)C2O)C1OC1OC(CO)C(O)C(O)C1O)C3 (stereo partly drawn) [crystal form A of Rebaudioside D, Rebaudioside D]
